Values quoted from earlier work as cited in US20030215917A1, “Assay for evaluation of activity of compounds against HCV using a novel detection system in the HCV replicon” (priority 2002, published 2003).

How the values were obtained:
[1] = tested on: Hepatitis B virus (HBV), Hepatitis C virus (HCV), Yellow Fever virus, Dengue Virus, Japanese Encephalitis, West Nile virus and related flaviviruses
HCV replicon cells = conditions: at high concentration; stated as known
HCV and HCV replicon = conditions: stated as known

Molecule | activity against viruses [1] | inhibition of the replication of the virus (viral growth) [1] | toxicity to the host cells (host cells) | cytotoxicity effect (HCV replicon cells) | inhibition of viral replication (HCV and HCV replicon)
O=C1OCc2c1cc1ccc3c(c1c2-c1ccc2c(c1)OCO2)OCO3 [Helioxanthin] | high activity | potent inhibition | very low toxicity | known to have cytotoxicity effect at high concentration | 
interferon alpha |  |  |  |  | known to inhibit viral replication
